Source: PubChem BioAssay (NCI)
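Protocol summary: plate cells (96-well), add compound at 5 concentrations, incubate 48 h, interpolate endpoints linearly. At the TGI there is no net growth.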

Assays:
Assay in all cases: DTP human tumour cell line panel, 48 h
[1] = tested on: UACC-62 melanoma
[2] = tested on: DU-145 prostate
[3] = tested on: OVCAR-4 ovarian
[4] = tested on: OVCAR-5 ovarian
[5] = tested on: COLO 205 colon
[6] = tested on: TK-10 renal
[7] = tested on: HCT-15 colon
[8] = tested on: MCF7 breast
[9] = tested on: SF-268 CNS
[10] = tested on: PC-3 prostate
[11] = tested on: A498 renal
[12] = tested on: LOX IMVI melanoma
[13] = tested on: 786-0 renal
[14] = tested on: MDA-MB-231 breast

Row | Compound | TGI [1] [µM] | TGI [2] [µM] | TGI [3] [µM] | TGI [4] [µM] | TGI [5] [µM] | TGI [6] [µM] | TGI [7] [µM] | TGI [8] [µM] | TGI [9] [µM] | TGI [10] [µM] | TGI [11] [µM] | TGI [12] [µM] | TGI [13] [µM] | TGI [14] [µM]
1 | NC(N)=NCCC[C@H](N)C(=O)NCC(=O)N[C@@H](CC(=O)O)c1ncc(NC(=O)C(F)(F)F)o1 | > 25 | > 25 | > 25 | > 25 | > 25 | > 25 | > 25 | > 25 | > 25 | > 25 | > 25 | > 25 | > 25 | –
2 | COC(CNC(=O)C(C)NC(=O)CCc1ccccc1)OC (configuration not stated) | > 100 | > 100 | > 100 | > 100 | > 100 | > 100 | > 100 | > 100 | > 100 | > 100 | – | – | > 100 | > 100
3 | CC1NC(=O)CC(c2ccccc2)N(N=O)C1c1ccccc1 (configuration not stated) | > 100 | – | > 87.5 | > 100 | > 72.9 | – | > 100 | > 100 | > 100 | – | 52.3 | > 100 | – | –
4 | CC12C(=O)CC(CC1=O)C2(C)C | > 100 | > 100 | > 100 | > 100 | > 100 | > 100 | > 100 | > 100 | > 100 | > 100 | – | > 100 | > 100 | –
5 | CCOC(=O)CNc1c(OCc2ccccc2)c(=O)c1=O | > 100 | > 100 | > 100 | > 100 | > 100 | > 100 | > 100 | > 100 | > 100 | > 100 | – | – | > 100 | > 100
6 | N=C(N)c1ccc(C(NC(=O)CNS(=O)(=O)c2ccc3ccccc3c2)P(=O)(Oc2ccccc2)Oc2ccccc2)cc1 (configuration not stated) | > 100 | > 100 | > 100 | > 100 | > 100 | – | > 100 | > 100 | > 100 | > 100 | – | > 100 | > 100 | > 100
7 | C=CCCN1CCc2c([nH]c3ccccc23)C1C(=O)O (configuration not stated) | > 100 | – | > 100 | > 100 | > 100 | > 100 | – | – | > 100 | – | > 100 | > 100 | – | –
8 | N#CC(NC12CC3CC(CC(C3)C1)C2)c1ccccc1C(F)(F)F (configuration not stated) | – | – | > 100 | > 100 | > 100 | > 100 | > 100 | – | > 100 | – | – | > 100 | – | –
9 | COc1cc(C(=O)N(Cc2cccnc2)C(=S)N(Cc2cccnc2)C(=O)c2cc(OC)c(OC)c(OC)c2)cc(OC)c1OC | 73.9 | > 100 | 43.5 | > 100 | > 100 | > 100 | > 100 | 34.9 | > 100 | – | 52.9 | > 100 | > 100 | –
10 | Cc1cccc(N=NC(=O)NNc2cccc(C)c2C)c1C | > 100 | > 100 | > 100 | > 100 | – | > 100 | > 100 | – | > 100 | > 100 | 92.6 | 60.2 | 86 | > 100
11 | O=c1[nH]nc(-c2ccccc2)c2[nH]c3c4ccccc4ccc3c12 | > 100 | – | – | – | > 100 | – | > 100 | > 100 | > 100 | > 100 | > 100 | – | 48.1 | –
12 | COc1cc(/C=C2\C(=O)N(c3ccccc3)C(c3ccccc3)S2(=O)=O)cc(OC)c1OC (configuration not stated) | > 100 | > 100 | > 100 | > 100 | > 100 | > 100 | > 100 | > 100 | > 100 | – | > 100 | > 100 | > 100 | > 100
13 | NC(N)=N/N=C/c1c[nH]c2ccccc12 | > 100 | – | > 100 | > 100 | > 100 | > 100 | > 100 | – | > 100 | – | – | > 100 | > 100 | –
14 | O=Cc1c(C(=O)O)[nH]c(=O)[nH]c1=O | > 100 | > 100 | – | > 100 | > 100 | > 100 | > 100 | – | > 100 | > 100 | > 100 | > 100 | > 100 | > 100
15 | O=C(NNC(=S)Nc1cccc(Cl)c1)c1cc(-c2ccccc2)nc2ccccc12 | 26.7 | 29.5 | 28.7 | 36 | 29.2 | 30.8 | 29.6 | 23 | 35.4 | 29.3 | – | – | 31.2 | 33.2
16 | Cn1cc(NC(=O)c2cc(NC(=O)CN=C(N)N)cn2C)cc1C(=O)NCCC(=N)N | > 100 | > 100 | > 100 | > 100 | > 100 | > 100 | > 100 | > 100 | > 100 | > 100 | > 100 | > 100 | > 100 | –
17 | O=C1CCC(c2ccc(Cl)cc2)=NN1c1nsc2ccccc12 | > 100 | – | > 100 | > 100 | > 100 | > 100 | – | – | > 100 | – | – | – | – | –
